# Data as given in patent US9724309B2, “Film-form preparation and method for producing the same” (NITTO DENKO CORPORATION, priority 2010, dated 2017).
# Experiment: Particle size of drug particles by electron microscope
# Type: physicochemical
# Conditions: 200 particles
# Procedure: The various drug particles used in the Examples and Comparative Examples were obtained passing the powder through a 32 μm, 53 μm, 90 μm sieve after pulverization, or obtained fine particles by a jet mill (product of Hosokawa Micron Group, spiral jet mill model 50AS) or a spray dryer (product of Büchi Labortechnik AG, mini spray dryer model B-290) after pulverization. The particle sizes of these drug particles were measured by electron microscope (product of Hitachi High-Technologies Corp., model TM-1000) and the 50 vol % average particle size was calculated from the measurement results of 200 particles. This value was used as the particle size index of the particles.
row,Compound,50 vol % average particle size
1,"COc1cc(S(=O)(=O)[O-])ccc1O.O.[K+] [Potassium guaiacolsulfonate particles C, Potassium guaiacolsulfonate]",80.4 um
2,"COc1cc(S(=O)(=O)[O-])ccc1O.O.[K+] [Potassium guaiacolsulfonate particles, Potassium guaiacolsulfonate]",5.0 um
3,"N[C@@H](CCC(=O)N[C@@H](CS)C(=O)NCC(=O)O)C(=O)O [Glutathione (reduced form) particles, Glutathione (reduced form)]",5.3 um
4,"COc1cc(S(=O)(=O)[O-])ccc1O.O.[K+] [Potassium guaiacolsulfonate particles A, Potassium guaiacolsulfonate]",2.1 um
5,"COc1cc(S(=O)(=O)[O-])ccc1O.O.[K+] [Potassium guaiacolsulfonate particles B, Potassium guaiacolsulfonate]",40.4 um
6,"Cn1c(=O)c2[nH]cnc2n(C)c1=O [Aminophyllin particles, Aminophyllin]",4.3 um
